Measured values as given in ChEMBL document CHEMBL5032539, “Indole-Containing Amidinohydrazones as Nonpeptide, Dual RXFP3/4 Agonists: Synthesis, Structure-Activity Relationship, and Molecular Modeling Studies” (J Med Chem, 2021).
Converted amounts (≈) assume the structure as drawn.

Target: T1, Relaxin-3 receptor 1 (Homo sapiens, UniProt Q9NSD7)
T1 sequence (Q9NSD7 whole entry): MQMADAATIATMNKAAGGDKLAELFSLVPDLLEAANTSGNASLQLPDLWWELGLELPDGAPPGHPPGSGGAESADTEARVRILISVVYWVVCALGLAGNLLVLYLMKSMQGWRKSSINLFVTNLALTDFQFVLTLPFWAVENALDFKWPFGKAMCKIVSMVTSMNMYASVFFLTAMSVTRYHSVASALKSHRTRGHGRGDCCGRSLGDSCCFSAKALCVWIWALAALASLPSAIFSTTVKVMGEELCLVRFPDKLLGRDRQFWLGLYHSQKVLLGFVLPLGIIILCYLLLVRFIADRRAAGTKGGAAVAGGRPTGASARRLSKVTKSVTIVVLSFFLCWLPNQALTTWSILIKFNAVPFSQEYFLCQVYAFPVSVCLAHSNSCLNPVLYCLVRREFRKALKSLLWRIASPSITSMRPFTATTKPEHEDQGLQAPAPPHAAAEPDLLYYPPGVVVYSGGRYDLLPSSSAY
Assay: not given
Details: not given

Compared with `COc1cc(C)c2[nH]cc(/C=N/NC(=N)NCCc3ccc(Cl)cc3)c2c1`, `COc1cc(C)c2[nH]cc(/C=N/NC(=N)NCCCc3ccc(Cl)cc3)c2c1` is 22-fold higher in EC50: 74.7 nM for the first, 1660 nM for the second.

First: COC(=O)c1ccc(CCNC(=N)N/N=C/c2c[nH]c3c(C)cc(OC)cc23)cc1
Second: COc1ccc(CCNC(=N)N/N=C/c2c[nH]c3c(C)cc(OC)cc23)cc1
The EC50 of the first is 7.3-fold lower: 7.7 nM for the first, 56.1 nM for the second.

`COc1cc(C)c2[nH]cc(/C=N/NC(=N)NCCc3ccc(I)cc3)c2c1` and `COc1cc(C)c2[nH]cc(/C=N/NC(=N)NCCc3ccc(Br)cc3)c2c1` are within 1.5-fold of each other in EC50: 67 nM for the first, 69.9 nM for the second.

Compared with `N#Cc1ccc2[nH]cc(/C=N/NC(=N)NCCc3ccc(Cl)cc3)c2c1`, `N=C(NCCc1ccc(Cl)cc1)N/N=C/c1c[nH]c2ccc(Cl)cc12` is 11-fold higher in EC50: 253 nM for the first, 2820 nM for the second.

Going from `Cc1ccc2c(/C=N/NC(=N)NCCc3ccc(Cl)cc3)c[nH]c2c1` to `N=C(NCCc1ccc(Cl)cc1)N/N=C/c1c[nH]c2cc(F)ccc12`, the EC50 falls from 7440 nM to 3470 nM (2.1-fold). The second is the more potent here.

`COc1cc(C)c2[nH]cc(/C=N/NC(=N)Nc3ccc(Cl)cc3)c2c1` and `COc1cc(C)c2[nH]cc(/C=N/NC(=N)NCc3ccc(Cl)cc3)c2c1` are within 1.5-fold of each other in EC50: 3120 nM for the first, 3950 nM for the second.

Going from `Cc1cc(C#N)cc2c(/C=N/NC(=N)NCCc3ccc(Cl)cc3)c[nH]c12` to `COc1cc(C)c2[nH]cc(/C=N/NC(=N)NCCc3ccc(C#N)cc3)c2c1`, the EC50 falls from 82.3 nM to 13.2 nM (6.2-fold).

First: COc1cc(C)c2[nH]cc(/C=N/NC(=N)NCCc3ccc([N+](=O)[O-])cc3)c2c1
Second: COc1cc(C)c2[nH]cc(/C=N/NC(=N)NCCc3ccc(N(C)C)cc3)c2c1
The EC50 of the first is 7.2-fold lower: 13.6 nM for the first, 98.4 nM for the second.

First: COc1ccc2c(/C=N/NC(=N)NCCc3ccc(Cl)cc3)c[nH]c2c1
Second: N=C(NCCc1ccc(Cl)cc1)N/N=C/c1c[nH]c2ccc(F)cc12
The EC50 of the first is 3.5-fold higher: 4750 nM for the first, 1360 nM for the second.

First: CCc1cc(OC)cc2c(/C=N/NC(=N)NCCc3ccc(Cl)cc3)c[nH]c12
Second: CCc1cc(OC)cc2c(/C=N/NC(=N)NCCc3ccc(F)cc3)c[nH]c12
The EC50 of the first is 3.5-fold higher: 19.5 nM for the first, 5.6 nM for the second. The second is the more potent here.

Going from `Cc1cccc2c(/C=N/NC(=N)NCCc3ccc(Cl)cc3)c[nH]c12` to `N=C(NCCc1ccc(Cl)cc1)N/N=C/c1c[nH]c2c(F)cccc12`, the EC50 rises from 647 nM to 2790 nM (4.3-fold).

First: CCc1cc(OC)cc2c(/C=N/NC(=N)NCCc3cccnc3)c[nH]c12
Second: COc1cc(C)c2[nH]cc(/C=N/NC(=N)NCCc3ccccc3)c2c1
The EC50 of the first is 97-fold lower: 2.3 nM for the first, 224 nM for the second.

Compared with `N=C(NCCc1ccc(Cl)cc1)N/N=C/c1c[nH]c2cccc(F)c12`, `N=C(NCCc1ccc(Cl)cc1)N/N=C/c1c[nH]c2ccccc12` is 2.2-fold higher in EC50: 3210 nM for the first, 6940 nM for the second. The first is the more potent here.

Going from `COc1ccc2[nH]cc(/C(C)=N/NC(=N)NCCc3ccc(Cl)cc3)c2c1` to `N=C(NCCc1ccc(Cl)cc1)N/N=C/c1c[nH]c2ccc([N+](=O)[O-])cc12`, the EC50 falls from 7690 nM to 317 nM (24-fold).

Molecule `COc1cc(C)c2[nH]cc(/C=N/NC(=N)NCCc3ccccn3)c2c1` has an EC50 of 855 nM.

Target: T1, Relaxin-3 receptor 1
Assay: biochemical
Details: not given

Work on `COc1cc(C)c2[nH]cc(/C=N/NC(=N)NCCc3ccc(C#N)cc3)c2c1` yielded a Ki of 268 nM.

Tested on: not listed separately
Assay: physchem
Details: buffer, pH 7.4

First: CCc1cc(OC)cc2c(/C=N/NC(=N)NCCc3ccc(F)cc3)c[nH]c12
Second: CCc1cc(OC)cc2c(/C=N/NC(=N)NCCc3cccnc3)c[nH]c12
The solubility kinetic at 2 h of the first is 3.8-fold lower: 19.5 µM (≈ 7.44 µg/mL) for the first, 74.6 µM (≈ 27.2 µg/mL) for the second.

Target: Relaxin-3 receptor 2 (Homo sapiens, UniProt Q8TDU9)
Assay: not given
Details: not given

Relaxin-3 receptor 2, sequence (Q8TDU9 whole entry): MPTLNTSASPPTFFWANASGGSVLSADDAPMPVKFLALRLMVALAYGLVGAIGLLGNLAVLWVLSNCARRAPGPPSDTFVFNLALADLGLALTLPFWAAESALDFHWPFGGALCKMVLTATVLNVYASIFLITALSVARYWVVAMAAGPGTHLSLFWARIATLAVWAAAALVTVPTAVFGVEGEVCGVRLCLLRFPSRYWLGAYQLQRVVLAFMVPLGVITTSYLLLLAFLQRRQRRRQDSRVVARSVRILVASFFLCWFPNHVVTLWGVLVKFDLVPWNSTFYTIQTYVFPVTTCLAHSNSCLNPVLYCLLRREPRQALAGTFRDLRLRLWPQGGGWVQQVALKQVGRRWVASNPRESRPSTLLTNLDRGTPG

Compared with `CCc1cc(O)cc2c(/C=N/NC(=N)NCCc3ccc(Cl)cc3)c[nH]c12`, `CCc1cc(OC)cc2c(/C=N/NC(=N)NCCc3ccc(F)cc3)c[nH]c12` is 5-fold higher in EC50: 0.8 nM for the first, 4 nM for the second. The first is the more potent here.

`COC(=O)c1ccc(CCNC(=N)N/N=C/c2c[nH]c3c(C)cc(OC)cc23)cc1` and `COC(=O)c1ccc(CCNC(=N)N/N=C/c2c[nH]c3c(C)cc(C#N)cc23)cc1` are within 1.5-fold of each other in EC50: 3.4 nM for the first, 2.7 nM for the second.

First: CCc1cc(OC)cc2c(/C=N/NC(=N)NCCc3ccc(C#N)cc3)c[nH]c12
Second: CCc1cc(OC)cc2c(/C=N/NC(=N)NCCc3cccnc3)c[nH]c12
The EC50 of the first is 1.6-fold higher: 1.8 nM for the first, 1.1 nM for the second. The second is the more potent here.

`CCc1cc(C#N)cc2c(/C=N/NC(=N)NCCc3cccnc3)c[nH]c12` gave an EC50 of 0.9 nM.
